From patent US11780851B2, “LRRK2 inhibitors” (H. Lundbeck A/S, priority 2021, dated 2023)

Legend:
[1] = Free fraction in plasma (equilibrium dialysis); type: in vitro ADME, male Sprague-Dawley rat; conditions: rat plasma, 1 μM, 5 h at 37° C.
Procedure, shortened: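 Equilibrium dialysis (12-14 kDa membrane) of male Sprague-Dawley rat or female Gottingen minipig plasma, or rat brain homogenate diluted 1:4, against 100 mM sodium phosphate pH 7.4, compound at 1 μM nominal (≤0.5% DMSO), 5 h at 37 °C. LC/MS-MS quantification; percent free calculated, with dilution factor 4 for brain.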

LRRK2 WT = target: T1, LRRK2 WT (Homo sapiens, UniProt Q5S007); test: LRRK2 wild-type kinase activity assay (LanthaScreen TR-FRET); type: biochemical; conditions: 1 nM LRRK2 WT, 1.3 mM ATP, 3.5 h at 30° C.; n≥2 tests
T1 construct: comprises residue 970 to 2527 of the full length human wild-type LRRK2 kinase; purchased Invitrogen (Life Technologies Corporation)
T1 sequence (Q5S007 970-2527): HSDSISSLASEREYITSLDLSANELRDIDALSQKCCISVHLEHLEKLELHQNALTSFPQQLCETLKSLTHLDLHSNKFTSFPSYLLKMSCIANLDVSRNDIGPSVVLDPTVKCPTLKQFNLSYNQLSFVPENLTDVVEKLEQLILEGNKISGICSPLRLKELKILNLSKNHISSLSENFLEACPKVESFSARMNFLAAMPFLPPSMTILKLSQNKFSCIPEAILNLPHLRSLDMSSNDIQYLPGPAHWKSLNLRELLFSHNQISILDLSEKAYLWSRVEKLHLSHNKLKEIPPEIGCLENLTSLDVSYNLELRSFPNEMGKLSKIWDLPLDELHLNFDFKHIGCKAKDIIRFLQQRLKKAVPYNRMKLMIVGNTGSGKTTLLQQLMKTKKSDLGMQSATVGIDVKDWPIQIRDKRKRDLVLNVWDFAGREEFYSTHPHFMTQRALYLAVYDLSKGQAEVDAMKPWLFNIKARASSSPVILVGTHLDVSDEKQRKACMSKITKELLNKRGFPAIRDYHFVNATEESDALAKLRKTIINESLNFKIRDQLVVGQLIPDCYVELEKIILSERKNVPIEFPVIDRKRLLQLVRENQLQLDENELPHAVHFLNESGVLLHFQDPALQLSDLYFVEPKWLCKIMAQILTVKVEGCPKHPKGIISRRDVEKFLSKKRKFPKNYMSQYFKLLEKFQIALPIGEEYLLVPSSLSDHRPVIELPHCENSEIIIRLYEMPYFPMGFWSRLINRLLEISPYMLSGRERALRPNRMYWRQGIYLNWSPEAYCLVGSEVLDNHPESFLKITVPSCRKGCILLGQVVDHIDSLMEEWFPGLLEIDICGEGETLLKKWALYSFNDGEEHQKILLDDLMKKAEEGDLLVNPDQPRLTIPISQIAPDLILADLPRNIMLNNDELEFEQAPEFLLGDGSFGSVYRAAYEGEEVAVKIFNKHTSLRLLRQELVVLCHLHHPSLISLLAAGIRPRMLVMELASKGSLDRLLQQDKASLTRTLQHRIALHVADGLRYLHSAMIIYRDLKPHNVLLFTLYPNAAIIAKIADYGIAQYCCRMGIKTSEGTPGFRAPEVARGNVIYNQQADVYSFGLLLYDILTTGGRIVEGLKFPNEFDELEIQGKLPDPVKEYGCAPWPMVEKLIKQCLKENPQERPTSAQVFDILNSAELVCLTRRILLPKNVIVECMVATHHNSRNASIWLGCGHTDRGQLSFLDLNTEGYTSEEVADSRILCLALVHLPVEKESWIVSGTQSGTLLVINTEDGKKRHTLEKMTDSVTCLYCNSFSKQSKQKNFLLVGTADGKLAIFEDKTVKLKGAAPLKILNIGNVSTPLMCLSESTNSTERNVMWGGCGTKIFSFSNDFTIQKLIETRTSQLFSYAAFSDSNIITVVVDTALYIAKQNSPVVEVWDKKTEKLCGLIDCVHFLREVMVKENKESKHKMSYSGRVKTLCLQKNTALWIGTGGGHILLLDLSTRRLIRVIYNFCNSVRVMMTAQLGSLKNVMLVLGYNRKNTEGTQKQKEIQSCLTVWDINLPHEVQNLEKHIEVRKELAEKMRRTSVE
Procedure, shortened: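 TR-FRET measured phosphorylation of fluorescein-ERM LRRKtide by human LRRK2 residues 970–2527, wild-type or G2019S, detected with a terbium anti-phospho-LRRKtide antibody. The 520/495 nm ratio was normalized to uninhibited and inhibitor controls. IC50 came from a Hill fit, log-averaged over independent experiments.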

[2] = test system: panel of 403 wild type kinases; test: Broad kinase selectivity, Eurofins DiscoverX scanMAX panel; type: binding, primarily of human origin; conditions: screening concentration 100 nM; for Number of Hits: 403 non-mutant kinases
Method: Protein kinase profiling of the inhibitors (Fabian, M. A. et al. inhibitors. Nat. […] Selectivity Score or S-score is a quantitative measure of compound selectivity. It was calculated by dividing the number of kinases that compounds bind to by the total number of distinct kinases tested, excluding mutant variants. S=Number of hits/Number of assays. This value can be calculated using % Ctrl as a potency threshold (below) and provides a quantitative method of describing compound selectivity to facilitate comparison of different compounds.

Compound: [2H]C([2H])([2H])c1c2c(nn1C1CCOCC1)OCCCn1nc(Cl)c3cnc(nc31)N2 [Example 13, 8-Chloro-3-(methyl-d3)-2-(tetrahydro-2H-pyran-4-yl)-2,4,12,13-tetrahydro-11H-5,7-(azenometheno)dipyrazolo[3,4-b:5′,1′-g][1]oxa[4,6,8]triazacycloundecine]
- fuplasma (% free) [1]: 32.0 % free
- IC50 (LRRK2 WT): 9.6 nM
- Selectivity Score ([2]; S(1): % Ctrl < 1): 0.002
- Number of Hits ([2]; S(1): % Ctrl < 1, hit is LRRK2 WT): 1
- Selectivity Score ([2]; S(10): % Ctrl < 10): 0.03
- Number of Hits ([2]; S(10): % Ctrl < 10): 12
- Selectivity Score ([2]; S(35): % Ctrl < 35): 0.094
- Number of Hits ([2]; S(35): % Ctrl < 35): 38
